Experimental data from patent US9216197B2, “Topical formulations of tellurium-containing compounds” (BIOMAS LTD., priority 2006, dated 2015).

How the values were obtained:
[1] = AS101 solubility profile: solubility and stability (by coloration detection) in various solvents; type: physicochemical; details: for Coloration / Solubility: 10% by weight AS101, ambient temperature, after 24 hours
Experimental: In a search for an improved formulation for topical application, the solubility and stability (by coloration detection) of AS101 in various hydrophilic and lipophilic solvents were determined. Since it is commonly known that topically applied formulations have better skin absorption and feel when the active pharmaceutical ingredient is solubilized or is in a molecular form, a desirable topical formulation should be characterized by high solubility and/or dispersability of the active ingredient therein.
Thus, solutions containing 10% by weight of AS101 in each solvent, were prepared by mixing AS101 in the solvent at ambient temperature.

[2] = test system: rats; details: intravenous and intramuscular administration; cited from earlier work
[3] = Compatibility with aluminum tube packaging and metal equipment; type: physicochemical; details: any contact with metal equipment
[4] = AS101 solubility profile: solubility and stability (by coloration detection) in various solvents; type: physicochemical; details: hydroxycellulose
[5] = Microscopic evaluation of samples and polarized light crystallography; type: physicochemical
Text: Microscopic Evaluation of Samples and Polarized Light Crystallography: Formulation Stability Measurements

[6] = Storage of AS101 samples in scintillation glass bottles with aluminum laminated non-sealed caps; type: physicochemical; details: 30 days at ambient temperature, scintillation glass bottle with non-sealed cap
Experimental: FIGS. 1A-B present images of the content and packaging components of the containers in which the AS101 powder (FIG. 1A) and the […] AS101 […] solution in DMSO (FIG. 1B) were provided, upon 30 days of storage at ambient temperature.
The white crystalline coarse powder was placed in a scintillation glass bottle with a non-sealed cap.
A 20% (by weight) solution of AS101 in DMSO was prepared. The solution appeared as a yellow liquid with a cloudy dispersion evolving upon mixing. […] However, some unidentified particles were observed.

[7] = Heating the mixture of AS101 and propylene glycol; type: physicochemical

Cl[TeH]1(Cl)(Cl)OCCO1 [AS101, ammonium trichloro(dioxyethylene-O,O′)tellurate]
Coloration ([1]; 1% acetic acid): No | Solubility ([1]; 1% acetic acid): No | Coloration ([1]; Alkyl benzoate): No | Solubility ([1]; Alkyl benzoate): No | Coloration ([1]; Arlamol E): No | Solubility ([1]; Arlamol E): No | Coloration ([1]; Butyleneglycol): No | Solubility ([1]; Butyleneglycol): Yes | Coloration ([1]; DMI): No | Solubility ([1]; DMI): No | Coloration ([1]; DMSO): No | Solubility ([1]; DMSO): Yes | Coloration ([1]; Glycofurol): No | Solubility ([1]; Glycofurol): Yes | Coloration ([1]; Hexylene glycol): No | Solubility ([1]; Hexylene glycol): No | Coloration ([1]; IPM): No | Solubility ([1]; IPM): No | Coloration ([1]; MCT oil): No | Solubility ([1]; MCT oil): No | Coloration ([1]; Mineral oil): No | Solubility ([1]; Mineral oil): No | Coloration ([1]; PEG 200): No | Solubility ([1]; PEG 200): Yes | Coloration ([1]; PEG 400): No | Solubility ([1]; PEG 400): Yes | Coloration ([1]; Propylene Glycol): No | Solubility ([1]; Propylene Glycol): Yes | Coloration ([1]; Silicone oil): Black | Solubility ([1]; Silicone oil): No | Coloration ([1]; Transcutol): No | Solubility ([1]; Transcutol): Yes | Precipitation or re-crystallization of AS101 ([1]; amphiphilic glycolic solvents: PEG, butyleneglycol, gycofurol, propylene glycol and TRANSCUTOL, during the tested period): no precipitation or re-crystallization | LD50 relative to the immunologically effective dose [2]: 500-1000 folds | Color upon contact with metal equipment [3]: dark, black color | Solution coloration (compatibility) [4]: unacceptable solution coloration | Crystals under polarized light ([5]; polarized light): distinct crystals producing birefrigerence | Particle diameter ([5]; powder): 20-40 microns | State of the aluminum laminate cap after storage [6]: chemically and physically decomposed | Change upon heating the mixture of AS101 and propylene glycol [7]: no change was observed
